{"source": "patent US7645466B2", "about": "“Methods for deriving, isolating, and/or extracting amino acid compositions from Fenugreek seed” (TSI Group Limited, priority 2004, dated 2010)", "origin": "cited, not measured here", "test_system": "pancreatic beta cell", "conditions": "micromolar concentrations; direct effect on pancreatic beta cell, glucose dependent", "data": [{"smiles": "C[C@@H]([C@H](C)O)[C@H](N)C(=O)O", "note": "[4-hydroxyisoleucine]", "values": [{"measurement": "glucose-induced insulin secretion", "value": "stimulate glucose-induced insulin secretion in micromolar concentrations"}]}]}
